Laboratory results reported in patent US11400106B2, “Methods for inhibiting microbe growth” (priority 2018, dated 2022).
Read-outs that look alike come from different tables or passages of the source.

Experiments:
S. aureus = experiment: microbe, parasite or virus in culture; details: for MIC: Staphylococcus aureus, 18 h, read-out: MIC, S. aureus, MHB−; for Fold, S. aureus: fold shift in MIC
Description: (§1) In the following experiments, bacterial cells were cultured in 96-well microtiter plates in cation-adjusted Mueller-Hinton Broth (MHB) for 18 h at 37° C. The main strains used were E. coli (K-12 BW25113) (placed in stationary incubator) and S. aureus (Newman Strain) (incubated at 250 r.p.m). Knockout strains (ΔtolcC and ΔychM) were used from the Keio knockout collection (Baba et al., Construction of Escherichia coli K-12 in-frame, single-gene knockout mutants: the Keio collection. Mol Syst Biol 2, 2006 0008, doi:10.1038/msb4100050 (2006)). For MIC determination and checkerboard analyses, Clinical & Laboratory Standards Institute (CLSI) protocol was used. […] DiSC3 loading of S. aureus cells was performed as previously described (Farha et al., Collapsing the proton motive force to identify synergistic combinations against Staphylococcus aureus. Chemistry & biology 20, 1168-1178, doi:10.1016/j.chembiol.2013.07.006 (2013)). CCCP concentration of 20 μM was used. pH adjustments were made by addition of HCl or NaOH. INT assay and ATP bioluminescence assays were performed as previously described (Farha et al., Collapsing the proton motive force to identify synergistic combinations against Staphylococcus aureus. Chemistry & biology 20, 1168-1178, doi:10.1016/j.chembiol.2013.07.006 (2013)). For chemical-genomic studies, the Keio library was grown overnight in cation-adjusted MHB broth, in 384-well plates. From these, treatment plates (25 mM sodium bicarbonate, or a sterile water control) were inoculated and grown for 15 hours at 37° C., in a stationary incubator. Data was normalized according to Mangat et al (Mangat et al., Rank ordering plate data facilitates data visualization and normalization in high-throughput screening. J Biomol Screen 19, 1314-1320, doi:10.1177/1087057114534298 (2014)), with gene products and GO terms mined from EcoCyc. The GFP promoter library (Keseler et al., EcoCyc: fusing model organism databases with systems biology. Nucleic Acids Res 41, D605-612, doi:10.1093/nar/gks1027 (2013)) was grown for 18 hours at ambient temperature with the same inoculation strategy as with the Keio collection. The analysis pipeline of Zaslaver et al (Zaslaver et al., A comprehensive library of fluorescent transcriptional reporters for Escherichia coli. Nat Methods 3, 623-628, doi:10.1038/nmeth895 (2006)) was used to generate maps of promoter activity, from which lists of promoters with increased or decreased activity were compiled.
(§2) Fold enhancement in MICs in the media supplemented with sodium bicarbonate is represented by a positive fold, whereas suppression of activity is represented by a negative fold.
(§3) The effect of sodium bicarbonate on the activity of additional antibacterial agents was investigated. Clinical isolates of various bacteria were obtained from the ATCC and the IHMA.
(§4) The effect of sodium bicarbonate on the activity of cationic antiseptic agents was investigated. Clinical isolates of various bacteria were obtained from the ATCC and the IHMA.

E. coli = experiment: microbe, parasite or virus in culture; assay type: cell-based, Escherichia coli; details: for MIC: Escherichia coli; for Fold, E. coli: fold shift in MIC
Description: as §1, §2, §3, §4

[1] = 18 h, antibiotic agents, MHB in the absence of sodium bicarbonate, read-out: MIC, E. coli, MHB−
[2] = 18 h, MHB in the absence of sodium bicarbonate, read-out: MIC, E. coli, MHB−
[3] = antiseptic agents, MHB in the absence of sodium bicarbonate
[4] = antiseptic agents, MHB in the presence of 25 mM sodium bicarbonate
[5] = antibiotic agents, MHB in the absence of sodium bicarbonate
[6] = antibiotic agents, MHB− vs MHB+

| Compound | MIC, S. aureus, MHB+ (S. aureus) | MIC (S. aureus) [µg/mL] | MIC, E. coli, MHB+ (E. coli) | MIC (E. coli; [1]) [µg/mL] | MIC (E. coli; [2]) [µg/mL] | further results |
| --- | --- | --- | --- | --- | --- | --- |
| CCC[C@@H]1C[C@@H](C(=O)N[C@@H]([C@H]2O[C@H](SC)[C@H](O)[C@@H](O)[C@H]2O)[C@H](C)Cl)N(C)C1 [Clindamycin] | 0.12 μg of antimicrobial agent/mL of buffer | 0.25 | 128 μg of antimicrobial agent/mL of buffer | 128 |  |  |
| Cc1onc(-c2ccccc2Cl)c1C(=O)N[C@@H]1C(=O)N2[C@@H]1SC(C)(C)[C@@H]2C(=O)O [Cloxacillin] | 0.5 | 0.031 |  |  | 256 |  |
| N=C(N)c1ccc(OCCCOc2ccc(C(=N)N)cc2Br)c(Br)c1.O=S(=O)(O)CCO.O=S(=O)(O)CCO [Dibrompropamidine diisetionate] |  |  |  |  |  | MIC, S. aureus, MHB (S. aureus; [3]): 4 μg of antimicrobial agent/mL of buffer; MIC, S. aureus, MHB+ (S. aureus; [4]): 1 μg of antimicrobial agent/mL of buffer; Fold, S. aureus (S. aureus; antiseptic agents): 4; MIC, E. coli, MHB (E. coli; [3]): 64 μg of antimicrobial agent/mL of buffer; MIC, E. coli, MHB+ (E. coli; [4]): 16 μg of antimicrobial agent/mL of buffer; Fold, E. coli (E. coli; antiseptic agents): 4 |
| CC[C@H]1OC(=O)[C@H](C)[C@@H](O[C@H]2C[C@@](C)(OC)[C@@H](O)[C@H](C)O2)[C@H](C)[C@@H](O[C@@H]2O[C@H](C)C[C@H](N(C)C)[C@H]2O)[C@](C)(O)C[C@@H](C)[C@@H]2N[C@@H](COCCOC)O[C@H]([C@H]2C)[C@]1(C)O [Dirithromycin] | 0.5 | 4 |  |  | 128 | MIC (E. coli; E. coli, no salt, pH adjusted to 7.4, read-out: MIC of dirithromycin, control): 128 µg/mL |
| C[C@H]1c2cccc(O)c2C(=O)C2=C(O)[C@]3(O)C(=O)C(C(N)=O)=C(O)[C@@H](N(C)C)[C@@H]3[C@@H](O)[C@@H]21 [Doxycycline] | 2 | 0.125 |  |  | 1 |  |
| CCn1cc(C(=O)O)c(=O)c2cc(F)c(N3CCNCC3)nc21 [Enoxacin] | 2 | 1 |  |  | 0.25 |  |
| O=CN(O)CCCP(=O)(O)O [Fosmidomycin] | >64 | > 64 |  |  | 16 |  |
| CC(=O)O[C@H]1C[C@@]2(C)[C@@H](C[C@@H](O)[C@H]3[C@@]4(C)CC[C@@H](O)[C@@H](C)[C@@H]4CC[C@@]32C)/C1=C(\CCC=C(C)C)C(=O)O [Fusidic acid] | 2 μg of antimicrobial agent/mL of buffer | 0.5 | >128 μg of antimicrobial agent/mL of buffer | > 128 |  |  |
| COc1c(N2CCNC(C)C2)c(F)cc2c(=O)c(C(=O)O)cn(C3CC3)c12 (stereo not shown) [Gatifloxacin] | 8 μg of antimicrobial agent/mL of buffer | 4 | 4 μg of antimicrobial agent/mL of buffer | 16 |  |  |
| CCCCCCCCCCCCCCCC[N+](C)(C)C.[Br-] [Hexadecyltrimethylammonium bromide] | 0.25 μg of antimicrobial agent/mL of buffer |  | 8 μg of antimicrobial agent/mL of buffer |  |  | MIC, S. aureus, MHB (S. aureus): 0.5 μg of antimicrobial agent/mL of buffer; MIC, E. coli, MHB (E. coli): 32 μg of antimicrobial agent/mL of buffer |
| CN[C@H]1C[C@@H](N)[C@H](O)[C@@H](O[C@@H]2O[C@H](CO)[C@H](O)[C@@H]3OC4(O[C@H]23)O[C@H]([C@@H](N)CO)[C@H](O)[C@H](O)[C@H]4O)[C@@H]1O (stereo partly shown) [Hygromycin B] |  |  | 16 μg of antimicrobial agent/mL of buffer |  |  | MIC, S. aureus, MHB− (S. aureus; [5]): >128 μg of antimicrobial agent/mL of buffer; MIC, S. aureus, MHB+ (S. aureus; antibiotic agents, MHB in the presence of 25 mM sodium bicarbonate): 64 μg of antimicrobial agent/mL of buffer; Fold, S. aureus (S. aureus; [6]): 2; MIC, E. coli, MHB− (E. coli; [5]): 32 μg of antimicrobial agent/mL of buffer; Fold, E. coli (E. coli; [6]): 2 |
| NC[C@H]1O[C@H](O[C@H]2[C@H](O)[C@@H](O[C@H]3O[C@H](CO)[C@@H](O)[C@H](N)[C@H]3O)[C@H](N)C[C@@H]2N)[C@H](O)[C@@H](O)[C@@H]1O [Kanamycin] | 4 | 8 |  |  | 4 |  |
| C[C@H]1COc2c(N3CCN(C)CC3)c(F)cc3c(=O)c(C(=O)O)cn1c23 [Levofloxacin] | 1 | 0.5 |  |  | 0.0313 |  |
| CCC[C@@H]1C[C@@H](C(=O)N[C@@H]([C@H]2O[C@H](SC)[C@H](O)[C@@H](O)[C@H]2O)[C@@H](C)O)N(C)C1 [Lincomycin] | 0.0625 μg of antimicrobial agent/mL of buffer | 0.25 | 32 μg of antimicrobial agent/mL of buffer | > 128 |  |  |
| CC(=O)NC[C@H]1CN(c2ccc(N3CCOCC3)c(F)c2)C(=O)O1 [Linezolid] | 0.625 | 0.625 |  |  | 256 | effect of 25 mM sodium bicarbonate on antibacterial activity (S. aureus; S. aureus, result in words): remained largely unchanged; effect of 25 mM sodium bicarbonate on antibacterial activity (E. coli): remained largely unchanged |
| CCn1cc(C(=O)O)c(=O)c2cc(F)c(N3CCNC(C)C3)c(F)c21 (stereo not shown) [Lomefloxacin] | 8 μg of antimicrobial agent/mL of buffer | 4 | 0.125 μg of antimicrobial agent/mL of buffer | 0.5 |  |  |
| C/C(=C\C(=O)OCCCCCCCCC(=O)O)C[C@@H]1OC[C@H](C[C@@H]2O[C@H]2[C@@H](C)[C@H](C)O)[C@@H](O)[C@H]1O [Mupirocin] | 2 μg of antimicrobial agent/mL of buffer | 0.5 | 128 μg of antimicrobial agent/mL of buffer | 128 |  |  |
| CC1CCc2c(N3CCC(O)CC3)c(F)cc3c(=O)c(C(=O)O)cn1c23 (stereo not shown) [Nadifloxacin] | 0.5 μg of antimicrobial agent/mL of buffer | 0.12 | 32 μg of antimicrobial agent/mL of buffer | 8 |  |  |
| CCOc1ccc2ccccc2c1C(=O)N[C@@H]1C(=O)N2[C@@H]1SC(C)(C)[C@@H]2C(=O)O [Nafcillin] | 1 μg of antimicrobial agent/mL of buffer | 0.25 | 32 μg of antimicrobial agent/mL of buffer | 16 |  |  |
| CCn1cc(C(=O)O)c(=O)c2ccc(C)nc21 [Nalidixic acid] | 32 | > 8 |  |  | 2 | effect of 25 mM sodium bicarbonate on antibacterial activity (E. coli): suppressed |
| CCn1cc(C(=O)O)c(=O)c2cc(F)c(N3CCNCC3)cc21 [Norfloxacin] | 1 | 0.5 |  |  | 0.125 |  |
| Cc1onc(-c2ccccc2)c1C(=O)N[C@@H]1C(=O)N2[C@@H]1SC(C)(C)[C@@H]2C(=O)O [Oxacillin] | 1 | 0.0625 |  |  | 256 |  |
